# Key:
# Assay type in all cases: ADME, organism-based
# [1] = system: Triticum aestivum; test: Drug recovery in Bavarian Triticum aestivum (wheat) samples at 100 ug/kg after 1 day by LC-MS analysis; details: in vivo, 0.1 mg/kg, 24 h
# [2] = system: Triticum aestivum; test: Drug recovery in BavarianTriticum aestivum (wheat) samples at 10 ug/kg after 1 day by LC-MS analysis; details: in vivo, 0.01 mg/kg, 24 h
# [3] = system: Triticum aestivum; test: Drug level in Bavarian Triticum aestivum (wheat) at 10 to 100 ug/kg after 1 day by LC-MS analysis; details: in vivo, 24 h
structure (smiles),measurement,setting,value
C[C@H]1CCCC(=O)CCC/C=C/c2cc(O)cc(O)c2C(=O)O1 [ZEARALENONE],Drug recovery,[1],89%
same,Drug recovery,[2],32%
same,Drug uptake,[3],11 µg/kg
C[C@H]1CCCC(=O)CCC/C=C/c2cc(O[C@@H]3O[C@H](CO)[C@@H](O)[C@H](O)[C@H]3O)cc(O)c2C(=O)O1 [Zearalenone-4-beta-D-glucopyranoside],Drug recovery,[1],69%
same,Drug recovery,[2],67%
same,Drug uptake,[3],17 µg/kg

# — ChEMBL document CHEMBL3045413, “Occurrence of zearalenone-4-beta-D-glucopyranoside in wheat” (J Agric Food Chem, 2002)
